The results in this text go back to patent US12037340B2, “Pentacyclic derivatives as Zika virus inhibitors” (Gilead Sciences, Inc., priority 2021, dated 2024).

The subject of one experiment is ZIKV. In words: microbe, parasite or virus in culture. In kind it is cell-based, Zika virus. The settings on record: 48 hrs.
As to `COC[C@H]1C[C@@H](c2nc(Cl)c(-c3ccc4c(c3)COc3cc5c(ccc6nc([C@@H]7CC[C@H](C)N7C(=O)[C@@H](NC(=O)OC)C(C)C)[nH]c65)cc3-4)[nH]2)N(C(=O)[C@@H](NC(=O)OC)C(C)(C)C(F)(F)F)C1` [Compound 20, methyl ((S)-1-((2S,5S)-2-(9-(4-chloro-2-((2S,4S)-4-(methoxymethyl)-1-((S)-4,4,4-trilluoro-2-((methoxycarbonyl)amino)-3,3-dimethylbutanoyl)pyrrolidin-2-yl)-1H-imidazol-5-yl)-1,11-dihydroisochromeno[4′,3′:6,7]naphtho[1,2-d]imidazol-2-yl)-5-methylpyrrolidin-1-yl)-3-methyl-1-oxobutan-2-yl)carbamate], the EC50 turned out to be 0.0054 µM. On the same count and under the same terms, then `CC[C@H](C)[C@H](NC(=O)OC)C(=O)N1[C@H](c2nc(Cl)c(-c3ccc4c(c3)COc3cc5c(ccc6nc([C@@H]7C[C@@H]8CCC[C@@H]8N7C(=O)[C@@H](NC(=O)OC)[C@@H](C)CC)[nH]c65)cc3-4)[nH]2)C[C@@H]2CCC[C@@H]21` [Compound 35, methyl ((2S,3S)-1-((2S,3aS,6aS)-2-(4-chloro-5-(2-((2S,3aS,6aS)-1-((methoxycarbonyl)-L-isoleucyl)octahydrocyclopenta[b]pyrrol-2-yl)-1,11-dihydroisochromeno[4′,3′:6,7]naphtho[1,2-d]imidazol-9-yl)-1H-imidazol-2-yl)hexahydrocyclopenta[b]pyrrol-l(2H)-yl)-3-methyl-1-oxopentan-2-yl)carbamate], with 0.0209 µM; and `COC(=O)N[C@H](C(=O)N1[C@H](c2nc(Cl)c(-c3ccc4c(c3)COc3cc5c(ccc6nc([C@@H]7C[C@@H]8CCC[C@@H]8N7C(=O)[C@@H](NC(=O)OC)C7C[C@@H](C)O[C@H](C)C7)[nH]c65)cc3-4)[nH]2)C[C@@H]2CCC[C@@H]21)C1C[C@@H](C)O[C@H](C)C1` (stereo partly drawn) [Compound 36, methyl ((S)-2-((2S,3aS,6aS)-2-(4-chloro-5-(2-((2S,3aS,6aS)-1-((S)-2-((2R,6R)-2,6-dimethyltetrahydro-2H-pyran-4-yl)-2-((methoxycarbonyl)amino)acetyl)octahydrocyclopenta[b]pyrrol-2-yl)-1,11-dihydroisochromeno[4′,3′:6,7]naphtho[1,2-d]imidazol-9-yl)-1H-imidazol-2-yl)hexahydrocyclopenta[b]pyrrol-l(2H)-yl)-1-((2R,6R)-2,6-dimethyltetrahydro-2H-pyran-4-yl)-2-oxoethyl)carbamate], with 0.0469 µM.

Still in this experiment, the particulars now being: Zika virus, Huh-7; 48 hrs.
For the molecule `CC[C@H](C)[C@H](NC(=O)OC)C(=O)N1C[C@@H](COC)C[C@H]1c1nc(C#N)c(-c2ccc3c(c2)COc2cc4c(ccc5nc([C@@H]6CC[C@H](C)N6C(=O)[C@@H](NC(=O)OC)C(C)C)[nH]c54)cc2-3)[nH]1` [Compound 16, methyl ((S)-1-((2S,5S)-2-(9-(4-cyano-2-((2S,4S)-1-((methoxycarbonyl)-L-isoleucyl)-4-(methoxymethyl)pyrrolidin-2-yl)-1H-imidazol-5-yl)-1,11-dihydroisochromeno[4′,3′:6,7]naphtho[1,2-d]imidazol-2-yl)-5-methylpyrrolidin-1-yl)-3-methyl-1-oxobutan-2-yl)carbamate], a half-maximal response (EC50) required 0.0434 µM. On the same count and under the same terms, then `COC(=O)N[C@H](C(=O)N1[C@@H](C)CC[C@H]1c1nc(C2CC2)c(-c2ccc3c(c2)COc2cc4c(ccc5nc([C@@H]6CC[C@H](C)N6C(=O)[C@@H](NC(=O)OC)C(C)(C)CF)[nH]c54)cc2-3)[nH]1)C(C)(C)CF` [Compound 42, methyl ((S)-1-((2S,5S)-2-(4-cyclopropyl-5-(2-((2S,5S)-1-((S)-4-fluoro-2-((methoxycarbonyl)amino)-3,3-dimethylbutanoyl)-5-methylpyrrolidin-2-yl)-1,11-dihydroisochromeno[4′,3′:6,7]naphtho[1,2-d]imidazol-9-yl)-1H-imidazol-2-yl)-5-methylpyrrolidin-1-yl)-4-fluoro-3,3-dimethyl-1-oxobutan-2-yl)carbamate], with 0.0214 µM; and `CC[C@@H](C)[C@H](NC(=O)OC)C(=O)N1[C@@H](C)CC[C@H]1c1nc(C(C)C)c(-c2ccc3c(c2)COc2cc4c(ccc5nc([C@@H]6CC[C@H](C)N6C(=O)[C@@H](NC(=O)OC)[C@H](C)CC)[nH]c54)cc2-3)[nH]1` [Compound 46, methyl ((2S,3R)-1-((2S,5S)-2-(4-isopropyl-5-(2-((2S,5S)-1-((methoxycarbonyl)-L-alloisoleucyl)-5-methylpyrrolidin-2-yl)-1,11-dihydroisochromeno[4′,3′:6,7]naphtho[1,2-d]imidazol-9-yl)-1H-imidazol-2-yl)-5-methylpyrrolidin-1-yl)-3-methyl-1-oxopentan-2-yl)carbamate], with 0.0267 µM. With `COC(=O)N[C@H](C(=O)N1[C@@H](C)CC[C@H]1c1nc(F)c(-c2ccc3c(c2)COc2cc4c(ccc5nc([C@@H]6CC[C@H](C)N6C(=O)[C@@H](NC(=O)OC)C(C)C)[nH]c54)cc2-3)[nH]1)C(C)C` [Compound 33, methyl ((S)-1-((2S,5S)-2-(9-(4-fluoro-2-((2S,5S)-1-((methoxycarbonyl)-L-valyl)-5-methylpyrrolidin-2-yl)-1H-imidazol-5-yl)-1,11-dihydroisochromeno[4′,3′:6,7]naphtho[1,2-d]imidazol-2-yl)-5-methylpyrrolidin-1-yl)-3-methyl-1-oxobutan-2-yl)carbamate], the midpoint of the response, the EC50, lay at 0.0773 µM. The same measure, in the same setting: the result for `COC[C@H]1C[C@@H](c2nc(Cl)c(-c3ccc4c(c3)COc3cc5c(ccc6nc([C@@H]7CC[C@H](C)N7C(=O)[C@@H](NC(=O)OC)C(C)C)[nH]c65)cc3-4)[nH]2)N(C(=O)[C@@H](NC(=O)OC)C(C)C)C1` [Compound 7, methyl ((S)-1-((2S,5S)-2-(9-(4-chloro-2-((2S,4S)-1-((methoxycarbonyl)-L-valyl)-4-(methoxymethyl)pyrrolidin-2-yl)-1H-imidazol-5-yl)-1,11-dihydroisochromeno[4′,3′:6,7]naphtho[1,2-d]imidazol-2-yl)-5-methylpyrrolidin-1-yl)-3-methyl-1-oxobutan-2-yl)carbamate] reads 0.039 µM; that for `COC(=O)N[C@H](C(=O)N1[C@@H](C)CC[C@H]1c1nc(C(C)C)c(-c2ccc3c(c2)COc2cc4c(ccc5nc([C@@H]6CC[C@H](C)N6C(=O)[C@@H](NC(=O)OC)C(C)(C)C(F)(F)F)[nH]c54)cc2-3)[nH]1)C(C)(C)C(F)(F)F` [Compound 45, methyl ((S)-4,4,4-trifluoro-1-((2S,5S)-2-(4-isopropyl-5-(2-((2S,5S)-5-methyl-1-((S)-4,4,4-trifluoro-2-((methoxycarbonyl)amino)-3,3-dimethylbutanoyl)pyrrolidin-2-yl)-1,11-dihydroisochromeno[4′,3′:6,7]naphtho[1,2-d]imidazol-9-yl)-1H-imidazol-2-yl)-5-methylpyrrolidin-1-yl)-3,3-dimethyl-1-oxobutan-2-yl)carbamate], 0.0049 µM; that for `COC(=O)N[C@H](C(=O)N1[C@@H](C)CC[C@H]1c1nc(Cl)c(-c2ccc3c(c2)COc2cc4c(ccc5nc([C@@H]6CC[C@H](C)N6C(=O)[C@@H](NC(=O)OC)C(C)(C)CF)[nH]c54)cc2-3)[nH]1)C(C)(C)CF` [Compound 32, methyl ((S)-1-((2S,5S)-2-(4-chloro-5-(2-((2S,5S)-1-((S)-4-fluoro-2-((methoxycarbonyl)amino)-3,3-dimethylbutanoyl)-5-methylpyrrolidin-2-yl)-1,11-dihydroisochromeno[4′,3′:6,7]naphtho[1,2-d]imidazol-9-yl)-1H-imidazol-2-yl)-5-methylpyrrolidin-1-yl)-4-fluoro-3,3-dimethyl-1-oxobutan-2-yl)carbamate], 0.0059 µM. On the same count and under the same terms, the result for `CC[C@@H](C)[C@H](NC(=O)OC)C(=O)N1C[C@@H](COC)C[C@H]1c1nc(Cl)c(-c2ccc3c(c2)COc2cc4c(ccc5nc([C@@H]6CC[C@H](C)N6C(=O)[C@@H](NC(=O)OC)C(C)C)[nH]c54)cc2-3)[nH]1` [Compound 19, methyl ((S)-1-((2S,5S)-2-(9-(4-chloro-2-((2S,4S)-1-((methoxycarbonyl)-L-alloisoleucyl)-4-(methoxymethyl)pyrrolidin-2-yl)-1H-imidazol-5-yl)-1,11-dihydroisochromeno[4′,3′:6,7]naphtho[1,2-d]imidazol-2-yl)-5-methylpyrrolidin-1-yl)-3-methyl-1-oxobutan-2-yl)carbamate] reads 0.0164 µM.

With `COC[C@H]1C[C@@H](c2nc(Cl)c(-c3ccc4c(c3)COc3cc5c(ccc6nc([C@@H]7CC[C@H](C)N7C(=O)[C@@H](NC(=O)OC)C(C)C)[nH]c65)cc3-4)[nH]2)N(C(=O)[C@@H](NC(=O)OC)[C@@H](C)OC)C1` [Compound 5, methyl ((S)-1-((2S,5S)-2-(9-(4-chloro-2-((2S,4S)-1-(N-(methoxycarbonyl)-O-methyl-L-threonyl)-4-(methoxymethyl)pyrrolidin-2-yl)-1H-imidazol-5-yl)-1,11-dihydroisochromeno[4′,3′:6,7]naphtho[1,2-d]imidazol-2-yl)-5-methylpyrrolidin-1-yl)-3-methyl-1-oxobutan-2-yl)carbamate], a half-maximal response (EC50) required 0.124 µM. In the case of `CC[C@H](C)[C@H](NC(=O)OC)C(=O)N1[C@@H](C)CC[C@H]1c1nc(C(C)C)c(-c2ccc3c(c2)COc2cc4c(ccc5nc([C@@H]6CC[C@H](C)N6C(=O)[C@@H](NC(=O)OC)[C@@H](C)CC)[nH]c54)cc2-3)[nH]1` [Compound 44, methyl ((2S,3S)-1-((2S,5S)-2-(4-isopropyl-5-(2-((2S,5S)-1-((methoxycarbonyl)-L-isoleucyl)-5-methylpyrrolidin-2-yl)-1,11-dihydroisochromeno[4′,3′:6,7]naphtho[1,2-d]imidazol-9-yl)-1H-imidazol-2-yl)-5-methylpyrrolidin-1-yl)-3-methyl-1-oxopentan-2-yl)carbamate], the EC50 is 0.0115 µM. On the same count and under the same terms, then `COC(=O)N[C@H](C(=O)N1[C@@H](C)CC[C@H]1c1nc(Cl)c(-c2ccc3c(c2)COc2cc4c(ccc5nc([C@@H]6CC[C@H](C)N6C(=O)[C@@H](NC(=O)OC)C6C[C@@H](C)O[C@H](C)C6)[nH]c54)cc2-3)[nH]1)C1CC(C)O[C@H](C)C1` (stereo in doubt) [Compound 9, methyl ((S)-2-((2S,5S)-2-(9-(4-chloro-2-((2S,5S)-1-((S)-2-((2R,6R)-2,6-dimethyltetrahydro-2H-pyran-4-yl)-2-((methoxycarbonyl)amino)acetyl)-5-methylpyrrolidin-2-yl)-1H-imidazol-5-yl)-1,11-dihydroisochromeno[4′,3′:6,7]naphtho[1,2-d]imidazol-2-yl)-5-methylpyrrolidin-1-yl)-1-((2R,6R)-2,6-dimethyltetrahydro-2H-pyran-4-yl)-2-oxoethyl)carbamate], with 0.0481 µM.

In general, EC50 refers to the midpoint of the concentration-response curve. High values mean a less potent agent, low ones a more potent agent.
